The text below walks through data of US20090124631A1, “Combination Therapy” (priority 2007, published 2009).

Structures are written as SMILES.

Assay [1] deals with T1, HDAC1 (Homo sapiens, UniProt Q13547).
T1 construct: cDNAs corresponding to the full length human HDAC1, 2, 3 and 11 were cloned into pBlueBac4.5 vector; FLAG (C); made in house; host or cells: Sf-9 insect cells (baculovirus)
Kind of assay: Fluorescence-based HDAC enzyme assay, recombinant HDAC1. The assay is classed as biochemical. Particulars: recombinant human HDAC enzyme in vitro; read-out: IC50 (μM) HD1. The text has this: cDNAs of human HDAC1-8 and 11 were generated by RT-PCR reactions using primers complementary to the 5′ and 3′ coding sequence of human HDAC gene sequences in GenBank. cDNAs corresponding to the full length human HDAC1, 2, 3 and 11 were cloned into pBlueBac4.5 vector (Invitrogen). The constructs were used to generate recombinant baculoviruses using the Bac-N-Blue™ DNA according to the manufacturer's instructions (Invitrogen). The recombinant HDAC1, 2, 3, 11 proteins produced harbor a FLAG tag at their C-termini. cDNAs encoding truncated versions of HDAC4, 5 and 7 encompassing their deacetylase domains were cloned into pDEST10 as an N-terminal hexahistidine fusion protein and recombinant baculoviruses were generated using the Bac-to-Bac™ Baculovirus expression system (Invitrogen). HDAC6 and 8 were cloned as full length N-terminally His-tagged protein. All HDAC proteins were expressed in insect Sf-9 cells (Spodoptera frugiperdai) upon infection with recombinant baculovirus. HDAC1 enzyme was purified from the Q-sepharose FF column (Amersham Pharmacia Biotech, Baie d'Urfe QC, Canada) followed by an anti-FLAG immunoaffinity column (Sigma). […] HDAC4, 5, 6, 7 and 8 were purified using either Ni-NTA resin (QIAGEN Mississauga ON, Canada) or His-Select resin (Sigma) with step washes and elution with different concentrations of imidazole in Buffer containing 25 mM Tris (or NaPO4) pH 8.0, 10% glycerol and 150 mM or 500 mM NaCl.
Boc-Lys(Ac)-AMC (for HDAC1, 2, 3, 6, and 8 enzymes), which was purchased from Bachem Biosciences Inc., (King of Prussia, Philadelphia) were added into enzyme-compound mixture and incubated at 37° C. For HDAC4, 5, 7 assays, Boc-Lys(TFA)-AMC, which was synthesized in house, was used as substrate and 0.1% BSA was added to the buffer. […] Reaction time was predetermined to ensure that reaction was linear for the incubation time. Reaction was stopped by adding a freshly prepared trypsin (1 mg/ml final concentration) with 1 μM TSA (Biomol) in assay buffer. After 30 minutes, fluorescence was measured using a fluorometer (SPECTRAMAX GeminiXS, Molecular Devices, Sunnylvale, Calif.).

The subject of assay [2] is human Du145 prostate tumor xenograft. Kind of assay: Du145 prostate tumor xenograft, combination with taxol. It counts as in vivo, mouse. The following applies: Du145, oral once daily 14 days with taxol 60 mg/kg i.v. Here is the method:
Antitumor studies were done using human Du145 prostate tumor xenograft model in male BALBc/A nude mice (from Japan Crea Inc., Japan). Male nude mice were used at age 8-10 weeks. Human carcinoma cells were injected subcutaneously in the animal flank and allowed to form solid tumors. Tumor fragments (about 2 mm^2 fragments) were then removed and implanted subcutaneously to the right flank of other animals. When the tumor sizes reached about 100 to 200 mm^3, recipient animals were treated with Compound D, Compound E, Compound F, Compound G or Compound H (suspended with 0.5% HPMC) by oral administration alone, or taxol by i.v. injection (60 mg/kg), or combination of taxol with oral administration of Compound D, Compound E, Compound F, Compound G, Compound H. Typically, taxol was administered once per week by iv injection on the first day as a single administration, while Compound D, Compound E, Compound F, Compound G, or Compound H were administered once daily for 14 days. Tumor volumes and gross body weight of animals were monitored twice weekly for up to 2 weeks. Each experimental group contained at least 6 animals.

For assay [3], the system named is TSP-1 transcription in mouse stromal cells in implanted H460 tumors. Kind of assay: TSP-1 transcription in mouse stromal cells of implanted H460 tumors. It counts as in vivo. Particulars: Compound A 100 mg/kg, Compound B 40 mg/kg, 5 repeated oral doses. The protocol:
[…] Each group contains three mice. […] The expression level of TSP-1 mRNA was detected by ABI7700 analyzer using probe/primer pre-mixture reagent (ABI, Cat# Mm01335418 ml) and TaqMan® Universal PCR Master Mix (ABI, Cat# 430-4437) as described in the ABI's protocol.

For assay [4], the system named is human H460 non-small cell lung tumor, Du145 prostate tumor, TSU-Pr1 prostate tumor, and AZ521 gastric tumor xenograft. Put plainly: Xenograft combination studies with taxol (Example 15). Particulars: oral administration, nude mice with human lung, prostate and gastric tumors. The assay is classed as in vivo, mouse. Here is the method:
Antitumor studies were done using human H460 non-small cell lung tumor, Du145 prostate tumor, TSU-Pr1 prostate tumor, and AZ521 gastric tumor xenograft model in male BALBc/A nude mice (from Japan Crea Inc., Japan). Male nude mice were used at age 8-10 weeks. Human carcinoma cells were injected subcutaneously in the animal flank and allowed to form solid tumors. Tumor fragments (about 2 mm^3 fragments) were then removed and implanted subcutaneously through a small surgical incision to the right flank of other animals. […] Tumor volumes and gross body weight of animals were monitored twice weekly for up to 2 weeks for AZ-521 and TSU-Pr1, or 4 weeks for H460 and Du145 xenografts. Each experimental group contained 6 animals.

Assay [5] deals with TSP-1 (THBS1) transcription in human cancer HCT15 cells. Put plainly: Microarray analysis of TSP-1 (THBS1) transcription in HCT15 cells. It counts as cell-based. Particulars: HCT15 cells in vitro, 24 hours. The source says: Total RNAs were extracted and RNA quality analysis was done using Agilent 2100 bioanalyzer and Agilent's RNA Labchip kits. RNAs were labeled with either Cy3 or Cy5 using Agilent's optimized labeling kits and hybridized to Human whole genome 44K Oligo Microarray (Agilent, Palo Alto, Calif.). Slides were scanned using DNA microarry scanner from Agilent and the raw data was extracted using Agilent's image analysis tool (feature extraction software). Normalization and statistical analysis were performed using GeneSpring software. Biological analysis was performed using Biointerpreter software.

T1 sequence (Q13547 whole entry): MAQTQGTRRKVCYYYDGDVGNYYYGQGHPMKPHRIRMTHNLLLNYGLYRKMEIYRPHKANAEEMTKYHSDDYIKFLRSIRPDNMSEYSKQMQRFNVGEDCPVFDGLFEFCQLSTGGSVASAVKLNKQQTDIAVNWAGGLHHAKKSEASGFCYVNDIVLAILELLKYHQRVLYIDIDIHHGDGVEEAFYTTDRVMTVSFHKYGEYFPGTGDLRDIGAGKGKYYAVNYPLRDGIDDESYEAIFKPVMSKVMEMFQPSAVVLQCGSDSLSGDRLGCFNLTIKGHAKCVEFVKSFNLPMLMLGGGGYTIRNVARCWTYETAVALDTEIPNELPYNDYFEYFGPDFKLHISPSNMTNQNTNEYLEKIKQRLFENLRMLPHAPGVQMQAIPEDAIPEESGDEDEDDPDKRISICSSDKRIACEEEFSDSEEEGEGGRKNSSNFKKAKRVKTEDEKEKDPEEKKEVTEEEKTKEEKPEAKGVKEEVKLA

Regarding `CN1CCN(c2ccc(C(=O)Nc3cc(-c4ccncc4)ccc3N)cc2)CC1` [Compound G], the half-maximal inhibitory concentration (IC50) in assay [1] was found to be 0.06 µM. In assay [2], the “antitumor activity of taxol” value is reported as “Potentiation”.

`Nc1ccc(-c2ccccc2)cc1NC(=O)c1ccc(N2CCC(N)CC2)cc1` [Compound E]: the half-maximal inhibitory concentration (IC50) in assay [1] was determined as 0.02 µM. Also, the “antitumor activity of taxol” value in assay [2] was “Potentiation”.

As for `Nc1ccccc1NC(=O)c1ccc(N2CC[C@H](Nc3cccnc3)C2)cc1` [Compound B], the “TSP-1 transcription in mouse stromal cells” value in assay [3] was “induction”. In assay [1], the IC50 turned out to be 0.2 µM. In addition, the “antitumor activity of taxol” value in assay [4] is reported as “Potentiation”. Also, the “TSP-1 (THBS1) transcription” value in assay [5] is “induction”.

Consider `Nc1ccccc1NC(=O)c1ccc(CNc2nccc(-c3cccnc3)n2)cc1` [Compound A], for which the “TSP-1 transcription in mouse stromal cells” value in assay [3] was “induction”. Also, the “antitumor activity of taxol” value in assay [4] is “Potentiation”. For the same molecule, in assay [5], the “TSP-1 (THBS1) transcription” value was “induction”.

For `CC(C)N1CCN(c2ccc(C(=O)Nc3cc(-c4ccncc4)ccc3N)cc2)CC1` [Compound H], in assay [1], the IC50 came out at 0.06 µM. The “antitumor activity of taxol” value in assay [2] is “Potentiation”.

As for `Nc1ccc(-c2ccccc2)cc1NC(=O)c1ccc(N2CC[C@H](N)C2)cc1` [Compound D], the IC50 in assay [1] was determined as 0.04 µM. Besides, the “antitumor activity of taxol” value in assay [2] is reported as “Potentiation”.

For `CN1CCN(c2ccc(C(=O)Nc3cc(-c4ccccn4)ccc3N)cc2)CC1` [Compound F], the IC50 in assay [1] stood at 0.1 µM. Further, the “antitumor activity of taxol” value in assay [2] is “Potentiation”.
